We go through 7 molecules from article PMC4057101 (Science (New York, N.Y.), 2013).

Assay type in all cases: biochemical
In one test the target is acetate kinase (AckA) (Escherichia coli, UniProt P0A6A3). Conditions: ATP.
The target in the next test is PhaB (Cupriavidus necator, UniProt P14697). The test is described as follows: coupled reduction with NphT7. As to conditions: substrate formed in situ by NphT7.
The target of test [1] is acetyl-CoA carboxylase (ACCase), AccABCD (Escherichia coli, UniProt P0A9Q5+P0ABD5). The test is described as follows: one-pot carboxylation. Conditions: formed in situ from fluoroacetate by AckA-Pta; 500 μM CoA.
acetyl-CoA carboxylase (ACCase), AccABCD, sequence (P0A9Q5 whole entry): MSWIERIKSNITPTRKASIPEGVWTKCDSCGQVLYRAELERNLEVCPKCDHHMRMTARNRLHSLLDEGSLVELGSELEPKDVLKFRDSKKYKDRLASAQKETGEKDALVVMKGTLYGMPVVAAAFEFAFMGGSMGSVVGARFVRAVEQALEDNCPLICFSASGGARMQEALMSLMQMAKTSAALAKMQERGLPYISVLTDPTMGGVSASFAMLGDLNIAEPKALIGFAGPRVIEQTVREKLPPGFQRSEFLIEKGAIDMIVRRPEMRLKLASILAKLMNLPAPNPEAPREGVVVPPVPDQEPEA
acetyl-CoA carboxylase (ACCase), AccABCD, sequence (P0ABD5 2-319): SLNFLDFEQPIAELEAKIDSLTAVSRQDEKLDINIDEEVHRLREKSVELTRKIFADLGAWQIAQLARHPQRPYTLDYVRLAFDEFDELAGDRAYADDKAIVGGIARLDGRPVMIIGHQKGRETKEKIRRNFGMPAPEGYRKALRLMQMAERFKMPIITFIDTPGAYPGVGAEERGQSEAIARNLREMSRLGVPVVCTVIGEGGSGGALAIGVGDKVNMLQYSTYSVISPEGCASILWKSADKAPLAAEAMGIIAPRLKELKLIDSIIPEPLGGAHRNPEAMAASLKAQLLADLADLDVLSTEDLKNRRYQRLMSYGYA
The next test deals with DEBSMod6+TE (Saccharopolyspora erythraea, UniProt Q03133). The test is described as follows: LC-MS of triketide lactone formation. Conditions: NDK-SNAC, MatB and ATP regeneration.
DEBSMod6+TE, sequence (Q03133 1468-3172): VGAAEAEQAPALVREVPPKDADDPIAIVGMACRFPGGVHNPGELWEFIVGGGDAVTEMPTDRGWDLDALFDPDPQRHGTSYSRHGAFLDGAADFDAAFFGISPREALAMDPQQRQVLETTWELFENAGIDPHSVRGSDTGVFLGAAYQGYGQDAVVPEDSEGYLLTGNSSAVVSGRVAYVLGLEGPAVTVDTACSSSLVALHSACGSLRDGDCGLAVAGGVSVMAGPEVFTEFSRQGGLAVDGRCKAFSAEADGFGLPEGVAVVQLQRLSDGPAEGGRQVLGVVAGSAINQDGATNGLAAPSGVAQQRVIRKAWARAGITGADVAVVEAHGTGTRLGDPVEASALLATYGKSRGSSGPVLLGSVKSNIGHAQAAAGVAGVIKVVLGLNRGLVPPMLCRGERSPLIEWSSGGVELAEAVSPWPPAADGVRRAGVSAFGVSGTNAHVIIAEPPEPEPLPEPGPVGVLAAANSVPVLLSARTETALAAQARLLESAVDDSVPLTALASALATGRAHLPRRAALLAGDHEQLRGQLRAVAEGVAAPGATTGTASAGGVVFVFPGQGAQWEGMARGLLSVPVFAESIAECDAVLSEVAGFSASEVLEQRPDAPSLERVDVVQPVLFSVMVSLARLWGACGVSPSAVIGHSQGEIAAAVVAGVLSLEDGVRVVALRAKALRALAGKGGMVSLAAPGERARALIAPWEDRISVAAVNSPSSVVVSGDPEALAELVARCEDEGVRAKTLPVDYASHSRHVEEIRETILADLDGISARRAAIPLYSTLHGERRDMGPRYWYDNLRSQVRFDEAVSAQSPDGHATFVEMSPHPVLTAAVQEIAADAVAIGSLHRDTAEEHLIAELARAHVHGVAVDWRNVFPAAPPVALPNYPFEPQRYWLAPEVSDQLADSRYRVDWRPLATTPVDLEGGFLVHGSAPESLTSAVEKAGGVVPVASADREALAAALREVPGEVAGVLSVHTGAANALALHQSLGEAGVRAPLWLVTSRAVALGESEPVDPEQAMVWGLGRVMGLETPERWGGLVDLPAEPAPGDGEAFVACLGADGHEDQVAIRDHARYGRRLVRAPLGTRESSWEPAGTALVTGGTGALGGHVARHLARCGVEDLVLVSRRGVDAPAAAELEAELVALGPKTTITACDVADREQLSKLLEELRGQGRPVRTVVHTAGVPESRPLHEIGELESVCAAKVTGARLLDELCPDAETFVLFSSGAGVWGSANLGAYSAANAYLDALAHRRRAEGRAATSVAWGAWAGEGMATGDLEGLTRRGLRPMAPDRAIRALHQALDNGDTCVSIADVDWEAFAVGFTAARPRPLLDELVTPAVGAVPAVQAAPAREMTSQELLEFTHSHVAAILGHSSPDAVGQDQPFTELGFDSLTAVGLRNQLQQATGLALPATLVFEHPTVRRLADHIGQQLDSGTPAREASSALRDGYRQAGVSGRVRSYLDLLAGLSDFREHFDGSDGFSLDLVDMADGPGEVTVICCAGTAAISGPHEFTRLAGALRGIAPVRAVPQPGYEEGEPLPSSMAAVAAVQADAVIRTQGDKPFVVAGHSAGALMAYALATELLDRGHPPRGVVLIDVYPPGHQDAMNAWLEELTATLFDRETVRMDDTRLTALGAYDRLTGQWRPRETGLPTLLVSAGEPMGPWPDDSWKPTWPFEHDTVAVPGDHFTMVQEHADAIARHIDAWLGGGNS
The target in the next test is T1, NphT7 (Streptomyces sp. CL190, UniProt D7URV0).
T1 sequence (D7URV0 1-329): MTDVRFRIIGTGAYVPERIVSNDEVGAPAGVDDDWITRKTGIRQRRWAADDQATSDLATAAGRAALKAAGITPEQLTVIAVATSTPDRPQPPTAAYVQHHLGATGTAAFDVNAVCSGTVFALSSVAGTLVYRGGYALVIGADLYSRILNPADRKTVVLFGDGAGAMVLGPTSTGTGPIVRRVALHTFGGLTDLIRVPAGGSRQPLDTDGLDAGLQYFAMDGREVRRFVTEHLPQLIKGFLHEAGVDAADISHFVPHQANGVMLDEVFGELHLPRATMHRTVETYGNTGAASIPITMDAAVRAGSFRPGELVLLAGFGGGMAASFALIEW
The test is described as follows: steady-state kinetics, coupled assay with PhaB. As to conditions: acetyl-CoA starter.

acetate kinase (AckA), sequence (P0A6A3 whole entry): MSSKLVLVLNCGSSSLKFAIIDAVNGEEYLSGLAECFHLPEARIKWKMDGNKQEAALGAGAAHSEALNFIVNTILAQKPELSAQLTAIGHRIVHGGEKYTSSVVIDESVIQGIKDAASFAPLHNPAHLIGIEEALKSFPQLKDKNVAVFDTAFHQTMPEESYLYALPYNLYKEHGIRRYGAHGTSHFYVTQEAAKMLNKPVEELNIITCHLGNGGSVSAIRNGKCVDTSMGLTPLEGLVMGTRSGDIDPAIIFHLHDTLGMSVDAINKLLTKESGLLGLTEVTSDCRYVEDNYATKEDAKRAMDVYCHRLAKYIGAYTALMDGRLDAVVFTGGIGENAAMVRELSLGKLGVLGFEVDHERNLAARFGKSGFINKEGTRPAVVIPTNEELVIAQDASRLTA
PhaB, sequence (P14697 whole entry): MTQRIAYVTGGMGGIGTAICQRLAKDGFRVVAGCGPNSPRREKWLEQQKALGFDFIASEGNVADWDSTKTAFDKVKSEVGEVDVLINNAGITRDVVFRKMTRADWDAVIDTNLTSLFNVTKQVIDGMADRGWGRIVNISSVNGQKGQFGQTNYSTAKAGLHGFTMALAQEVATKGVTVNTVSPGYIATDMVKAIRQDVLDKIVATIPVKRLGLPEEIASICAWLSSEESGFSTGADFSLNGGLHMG

Consider `CC(=O)O` [acetate], for which the KM entry on acetate kinase (AckA) is “rapidly produce both acetyl- and fluoroacetyl-CoA in nearly quantitative yield”.

Turning to `CC(=O)C(F)C(=O)SCCNC(=O)CCNC(=O)[C@H](O)C(C)(C)COP(=O)(O)OP(=O)(O)OC[C@H]1O[C@@H](n2cnc3c(N)ncnc32)[C@H](O)[C@@H]1OP(=O)(O)O` (some centres unmarked) [acetofluoroacetyl-CoA], the “coupled reduction with NphT7; 1H and 19F NMR of product” value at PhaB is listed as “PhaB is capable of efficiently reducing the acetofluoroacetyl-CoA substrate”. In the case of `O=C(O)CF` [fluoroacetate], the KM entry on acetate kinase (AckA) is “Analysis of the kinetic parameters for these enzymes with respect to fluorinated substrates”.

In the case of `CC(C)(COP(=O)(O)OP(=O)(O)OC[C@H]1O[C@@H](n2cnc3c(N)ncnc32)[C@H](O)[C@@H]1OP(=O)(O)O)[C@@H](O)C(=O)NCCC(=O)NCCSC(=O)CF` [fluoroacetyl-CoA], in test [1], the one-pot carboxylation entry is given as “carry out the carboxylation of fluoroacetate in a one-pot reaction to generate the fluoromalonyl-CoA”. In the case of `CC(C)(COP(=O)(O)OP(=O)(O)OC[C@H]1O[C@@H](n2cnc3c(N)ncnc32)[C@H](O)[C@@H]1OP(=O)(O)O)[C@@H](O)C(=O)NCCC(=O)NCCSC(=O)C(F)C(=O)O` (some centres unmarked) [fluoromalonyl-CoA], the “LC-MS of triketide lactone formation” value on DEBSMod6+TE is given as “DEBSMod6+TE is also able to accept the fluorinated monomer in chain extension catalysis”. Further, the KM result on NphT7 was “formation of acetofluoroacetyl-CoA using an acetyl-CoA starter and fluoromalonyl-CoA extender”.

Regarding `CC(C)(COP(=O)(O)OP(=O)(O)OC[C@H]1O[C@@H](n2cnc3c(N)ncnc32)[C@H](O)[C@@H]1OP(=O)(O)O)[C@@H](O)C(=O)NCCC(=O)NCCSC(=O)CC(=O)O` [malonyl-CoA], the KM entry on NphT7 is on record as “Steady-state kinetic parameters for NphT7-catalyzed C–C bond formation”. Consider `CC(C(=O)O)C(=O)SCCNC(=O)CCNC(=O)[C@H](O)C(C)(C)COP(=O)(O)OP(=O)(O)OC[C@H]1O[C@@H](n2cnc3c(N)ncnc32)[C@H](O)[C@@H]1OP(=O)(O)O` (some centres unmarked) [methylmalonyl-CoA], for which the “LC-MS of triketide lactone formation” value on DEBSMod6+TE is given as “single round of chain elongation with its native methylmalonyl-CoA extender unit”.
